Measured values from US20130230580A1, “Administration of SNS Neuroprotective Agents to Promote Hematopoietic Regeneration” (priority 2010, published 2013).

B1: GDNF-HA: glial cell-derived neurotrophic factor-hemagluttinin fusion (protein, UniProt P39905 78-211, looked up)
Glial cell line-derived …: SPDKQMAVLPRRERNRQAAAANPENSRGKGRRGQRGKNRGCVLTAIHLNVTDLGLGYETKEELIFRYCSGSCDAAETTYDKILKNLSRNRRLVSDKVGQACCRPIAFDDDLSFLDDNLVYHILRKHSAKRCGCI
modifications: hemagglutinin tag
notes: glial cell-derived neurotrophic factor-hemagluttinin fusion

How the values were obtained:
[1] = assay type: in vivo; conditions: cisplatin-treated vs saline mice, seven weekly injections; listed as Cisplatin
Description: To protect from kidney damage, mice were simultaneously subcutaneously (s.c.) injected with 1 mL of saline solution. Four weeks after the last injection of cisplatin, mice were euthanized for analysis, transplanted (see below) or mobilized with granulocyte colony-stimulating factor (G-CSF, see below). […] To induce neuroprotection from 60HDA, mice were injected with 4-MC (10 μg/kg; i.p.) or GDNF-Fc (5 μg per mice; s.c.) for 5 days, starting the treatment the same day as the first injection of 60HDA. To evaluate the effect of different treatments on the sensory response, the hot-plate test was performed as described in Raaijmakers et al., Curr. Opin. Hematol. 15:301 (2008), incorporated herein by reference. An Isotemp Dryblock (Fisher Scientific) was heated to, and maintained at, 50° C. Mice were individually placed on top of the heated surface and the time to the first episode of nociception (jumping or paw licking) was measured. The cut-off time was 60 seconds. Between measurements, the heated surface was thoroughly cleaned with detergent and ethanol and the temperature was allowed to stabilize at 50° C.

[2] = system: bone marrow; experiment: Bone marrow hematopoietic recovery after transplantation (BMNC, CFU-C, Lin-Sca1+c-kit+flt3- cells); assay type: in vivo, mice
Description: Mice were irradiated (1,200 cGy, two split doses, 3 hours apart) in a Cesium Mark 1 irradiator (JL Shepperd & associates). Three hours later, the indicated number of BMNCs was injected retroorbitally in the irradiated recipients under isoflurane (Phoenix Pharmaceuticals) anesthesia. Mice were allowed to recover and analyzed at the indicated time points. […]
(§1) Blood was harvested by retro-orbital sampling of mice anesthetized with isoflurane and collected in polypropylene tubes containing ethylenediaminetetraacetic acid (EDTA). Blood parameters were determined with an AcT differential counter (Beckman-Coulter). CFU-C assays were performed as described in He et al., Ann. Rev. Cell. Dev. Biol. 25:377 (2009), incorporated herein by reference. For flow cytometry, red blood cells were lysed thrice for 5 minutes at 4° C. in 0.15 M NH4Cl, cells were washed once in ice-cold PBS and counted in a hemocytometer. To determine Lin^−Sca1^+c-kit^+ or Lin^−Sca1^+c-kit^+ft13^− numbers, 10^6 cells were stained with the Mouse Lineage Panel (BD Biosciences) together with FITC-conjugated anti-Sca-1 antibody (BD Biosciences), PE-Cy7-conjugated anti-c-kit antibody (eBioscience) and PE-conjugated anti-flt3 antibody (eBioscience). Cells were further stained with streptavidin-Cy5 (Jackson Immunotech) and analyzed with a BD LSR11 system (BD Biosciences). Bone marrow was harvested by flushing the bone with 1 mL of ice-cold PBS, red blood cells were lysed once for 5 minutes at 4° C. in 0.15 M NH4Cl, cells were washed once in ice-cold PBS and counted with a hemocytometer. CFU-C and Lin^−Sca1^+c-kit^+ft13^− numbers were determined as above. In some experiments, CD150^+CD48^− cell numbers were determined by staining 5×10^6 cells with PE-anti-CD48 antibody (BD Biosciences) and PE-Cy7-anti-CD150 antibody (Biolegend).

[3] = parameters: species or system mice; conditions: mouse, in vivo
Description: (§2) To protect from kidney damage, mice were simultaneously subcutaneously (s.c.) injected with 1 mL of saline solution. Four weeks after the last injection of cisplatin, mice were euthanized for analysis, transplanted (see below) or mobilized with granulocyte colony-stimulating factor (G-CSF, see below).
To induce neuroprotection from 60HDA, mice were injected with 4-MC (10 μg/kg; i.p.) or GDNF-Fc (5 μg per mice; s.c.) for 5 days, starting the treatment the same day as the first injection of 60HDA.
Mice received G-CSF ([…]) s.c. every 12 hours for 5 days. Due to circadian oscillations on HSC mobilization, the last dose of G-CSF was administered 1 hour before blood collection at Zeigeber time 5.
as §1, with “To determine Lin^−Sca1^+c-kit^+ or Lin^−Sca1^+c-kit^+ft13^− numbers, 10^6 cells were stained with the Mouse Lineage Panel (BD Biosciences) together with FITC-conjugated anti-Sca-1 antibody (BD Biosciences), PE-Cy7-conjugated anti-c-kit antibody (eBioscience) and PE-conjugated anti-flt3 antibody (eBioscience).” left out

[4] = Complete blood counts of moribund cisplatin-treated mice after BMNC transplantation; assay type: in vivo; conditions: after BMT
Description: as §2
Mice were irradiated (1,200 cGy, two split doses, 3 hours apart) in a Cesium Mark 1 irradiator (JL Shepperd & associates). Three hours later, the indicated number of BMNCs was injected retroorbitally in the irradiated recipients under isoflurane (Phoenix Pharmaceuticals) anesthesia. Mice were allowed to recover and analyzed at the indicated time points.
Blood was harvested by retro-orbital sampling of mice anesthetized with isoflurane and collected in polypropylene tubes containing ethylenediaminetetraacetic acid (EDTA). Blood parameters were determined with an AcT differential counter (Beckman-Coulter). CFU-C assays were performed as described in He et al., Ann. Rev. Cell. Dev. Biol. 25:377 (2009), incorporated herein by reference. For flow cytometry, red blood cells were lysed thrice for 5 minutes at 4° C. in 0.15 M NH4Cl, cells were washed once in ice-cold PBS and counted in a hemocytometer. […] Cells were further stained with streptavidin-Cy5 (Jackson Immunotech) and analyzed with a BD LSR11 system (BD Biosciences). […] CFU-C and Lin^−Sca1^+c-kit^+ft13^− numbers were determined as above. […]

[5] = system: TH+ fibers; experiment: Immunofluorescence quantification of TH+ sympathetic fibers in bone marrow / calvaria; conditions: compared with vehicle control
Description: Bones were collected and fixed for 1 hour in 4% paraformaldehyde (PFA) in PBS (Electron Microscopy Sciences) at 4° C. They were then post-fixed overnight in 1% PFA in PBS at 4° C. and cryoprotected for 24 hours in 30% sucrose. Bones were then included in OCT (Tissue Tek), sectioned (14 μm sections) in a Cryostat, and mounted on CFSA 4× Slides (Leica). TH^+ immunofluorescence staining was performed as previously described in Mendez-Ferrer, et al., Nature 452:442 (2008), incorporated herein by reference. For each mouse analyzed, the number of nerve fibers in 6 fields was quantified and plotted as per mm^2. For whole-mount immunofluorescence, calvaria were harvested by cutting along the temporal lines of the skull and immediately fixed in methanol. Bone tissues were blocked/permeabilized in PBS containing 20% FCS and 0.5% Triton and stained with APC-conjugated anti-PECAM CD31 antibody and TH (Millipore). Signal amplification for TH staining was achieved by using a signal amplification kit (Perkin Elmer). Whole-mount tissues were imaged face-down on an upright Olympus BX61WI microscope. The area between the frontal and parietal bones was identified by moving along the coronal suture and images were obtained from the same area for all mice, along the coronal vein on either side of the central vein. The numbers of individual nerve fibers running alongside blood vessels were quantified and plotted as per 100 μm vessel segment. All images were processed using Slidebook software (Intelligent Imaging Innovations, Inc.).

[6] = system: PC12ES cells; experiment: Neural differentiation of PC12ES cells; assay type: cell-based; conditions: incubation for 1 week
Description: The murine cDNA for glial cell-line derived neurotrophic factor (Gdnf) was obtained from Open Biosystems. This cDNA was amplified and restriction sites were added for cloning with the following primers Forward: ACGCTAGCAATGGGATTCGGGCCACTT (SEQ ID NO:1); Reverse: CGAGATCTGCGATACATCCACACCGTTTAG (SEQ ID NO:2). The PCR product was purified and cloned into the PCL5.1neg plasmid to generate PCL5.1neg-GDNF. This plasmid was purified and transfected into 293T cells. Two days after transfection, the supernatant was collected and GDNF-Fc purified in a Protein G-sepharose column (Pierce). To assess functional activity of GDNF-Fc recombinant protein, PC12ES cells were cultured in DMEM supplemented with 5% FBS, 10% horse serum, sodium-pyruvate (Gibco), L-Glutamine (Gibco) and penicillin/streptomycin (Gibco) for 3 days and then the media was replaced with DMEM supplemented with 1% horse serum, sodium-pyruvate (Gibco), L-Glutamine (Gibco), penicillin/streptomycin (Gibco) and varying amounts of GDNF-Fc to induce differentiation. Seven days later the percentage of PC12 ES cells with two or more dendrites was scored under an inverted microscope. For each concentration of GDNF-Fc, 10 fields were analyzed.

Row | Molecule | sensory neuropathy (latency time in nociception assay) [1] | bone marrow cellularity of surviving mice after transplantation ([2]; cisplatin-treated, four weeks after BMT) | BM recovery 3 months after transplantation ([2]; mouse, in vivo) | HSC content by competitive repopulation assays ([2]; mouse, in vivo) | number of mobilized progenitors in blood after G-CSF [3] | progenitor and Lin-Sca1+c-kit+flt3- HSC numbers in BM [3] | reduction in number of mobilized progenitors in blood [3] | anemia in moribund mice [4] | reduction of density of TH+ fibers in bone marrow [5] [%] | neural differentiation of PC12ES cells (percent differentiated) [6]
1 | N.N.[Cl][Pt][Cl] [cisplatin] | induces peripheral neuropathy | severely aplastic | not yet completely recovered | reduced HSC content | markedly reduced | no significant change | approximately 50% | severe anemia | 65 | –
2 | B1 | – | – | – | – | – | – | – | – | – | increase in the percent differentiation
